# Data: publication PMC3428523, “Phase I study of the Aurora B kinase inhibitor barasertib (AZD1152) to assess the pharmacokinetics, metabolism and excretion in patients with acute myeloid leukemia” (Cancer Chemotherapy and Pharmacology, 2012)
# Where two headings read alike, the source gives them in different places. Marks after values point to notes of the source that are not given here.
# How the values were obtained:
# [1] = Metabolite profiling of plasma, urine and feces by HPLC-RAD / HPLC-MSn; assay type: in vivo, human
# Description: Samples of blood, urine and feces were collected prior to study treatment and at various time points during Cycle 1. […] A urine sample was collected within the 24-hour period prior to barasertib-SOI; feces samples within this 24-hour period were also collected. A urine sample was collected within the 24-hour period following barasertib-SOI.
# Barasertib and barasertib-hQPA concentrations in plasma and urine were measured using liquid chromatography tandem mass spectrometry following solid-phase extraction (plasma) or dilution (urine). Plasma measurements were determined by an independent bioanalytical facility (PRA International—Early Development Services, Assen, The Netherlands). […] Radioactivity in weighed aliquots of plasma, urine, feces, whole blood and dose material was determined by liquid scintillation counting (LSC). Radioactivity concentrations in plasma and whole blood, and percentage dose excreted in urine and feces samples were calculated using LabLogic Debra 5TM (version 5.4.10.51). […] Extracts were concentrated to dryness and reconstituted in water/acetonitrile (95:5 v/v). […] The two extracts were combined, concentrated to dryness and reconstituted in water/acetonitrile (95:5 v/v). […] The first two 5 % formic acid/acetonitrile extracts were combined, concentrated to a small volume and reconstituted in water/acetonitrile (95:5 v/v). Metabolite profiling was determined using high-performance liquid chromatography–radiometric (HPLC-RAD) methodology, with metabolites identified by HPLC coupled with mass spectrometry (HPLC-MSn).
# [2] = Plasma pharmacokinetics of barasertib and barasertib-hQPA (LC-MS/MS), 7-day continuous infusion in patients with AML; assay type: in vivo, human; conditions: for Time by which maximal plasma concentration was achieved: from start of infusion, first scheduled sample
# Description: (§1) This was an open-label, single-arm, single-center, Phase I study. Patients received barasertib 1,200 mg as a 7-day continuous intravenous infusion every 28 days. On Day 2 of Cycle 1 only, patients also received [^14C]-barasertib (250 μCi), administered as a 2-hour infusion. Based on preclinical studies in rat and dog, it was expected that an adequate recovery of total radioactivity, and thus comprehensive metabolite profiling, would be achieved following the administration of the specified [^14C]-barasertib regimen (data on file). On the completion of the [^14C]-barasertib infusion, administration of non-radiolabeled barasertib resumed for the remainder of the 7-day infusion period. Following Cycle 1, each patient could receive subsequent treatment cycles until disease progression or any other discontinuation criteria were met. For Cycle 1, patients remained as in-patients for up to 9 days following the start of the 7-day barasertib infusion (7 days of dosing plus 2 additional days for observation). For all subsequent cycles, patients were hospitalized for the infusion period only.
# (§2) Samples of blood, urine and feces were collected prior to study treatment and at various time points during Cycle 1. Blood samples were collected approximately 30 min prior to start of infusion (SOI) on Day 1 (barasertib) and Day 2 ([^14C]-barasertib), and then every 24 h until Day 10 (216 h) and on Days 14 and 18 (312 and 408 h, respectively). In addition, samples were collected on Day 2: 1 h following the start of the [^14C]-barasertib infusion ([^14C]-SOI), 5 min prior to the end of [^14C]-barasertib infusion ([^14C]-EOI), and at 15 min, 1, 2, 4 and 8 h following [^14C]-EOI; and on Day 8: 5 min prior to the end of the barasertib infusion (EOI), and at 15 min, 1, 2, 4, 6 and 10 h following EOI. A urine sample was collected within the 24-hour period prior to barasertib-SOI; feces samples within this 24-hour period were also collected. A urine sample was collected within the 24-hour period following barasertib-SOI. Further, urine and feces samples were collected within 24-hour periods following [^14C]-SOI: 0–24, 24–48, 48–72, 72–96, 96–120, 120–144, 144–168 and 168–192 h.
# (§3) Barasertib and barasertib-hQPA concentrations in plasma and urine were measured using liquid chromatography tandem mass spectrometry following solid-phase extraction (plasma) or dilution (urine). Plasma measurements were determined by an independent bioanalytical facility (PRA International—Early Development Services, Assen, The Netherlands). The lower limit of quantification (LLOQ) was 0.25 ng/mL for plasma samples and 1.00 μg/mL for urine samples. Radioactivity in weighed aliquots of plasma, urine, feces, whole blood and dose material was determined by liquid scintillation counting (LSC). Radioactivity concentrations in plasma and whole blood, and percentage dose excreted in urine and feces samples were calculated using LabLogic Debra 5TM (version 5.4.10.51). For metabolite profiling, plasma samples that were collected 5 min prior to [^14C]-EOI for each patient were prepared using 5 % formic acid in acetonitrile; extraction efficiencies were all >91 %. Extracts were concentrated to dryness and reconstituted in water/acetonitrile (95:5 v/v). Pooled urine samples were freeze-dried and then reconstituted in methanol (duplicate extracts); extraction efficiencies were all >94 %. The two extracts were combined, concentrated to dryness and reconstituted in water/acetonitrile (95:5 v/v). Pooled feces samples were extracted with hexane followed by 3 × 5 % formic acid in acetonitrile; extraction efficiencies ranged from 86 to 98 %. The first two 5 % formic acid/acetonitrile extracts were combined, concentrated to a small volume and reconstituted in water/acetonitrile (95:5 v/v). Metabolite profiling was determined using high-performance liquid chromatography–radiometric (HPLC-RAD) methodology, with metabolites identified by HPLC coupled with mass spectrometry (HPLC-MSn).
# [3] = Urine pharmacokinetics of barasertib and barasertib-hQPA (LC-MS/MS) in patients with AML; assay type: in vivo, human
# Description: as §1, §2
# as §3, with “Pooled urine samples were freeze-dried and then reconstituted in methanol (duplicate extracts); extraction efficiencies were all >94 %. The two extracts were combined, concentrated to dryness and reconstituted in water/acetonitrile (95:5 v/v). Pooled feces samples were extracted with hexane followed by 3 × 5 % formic acid in acetonitrile; extraction efficiencies ranged from 86 to 98 %. The first two 5 % formic acid/acetonitrile extracts were combined, concentrated to a small volume and reconstituted in water/acetonitrile (95:5 v/v).” left out
# patients with AML [4] = assay: Safety: adverse events graded by CTCAE version 3.0; assay type: in vivo, human
# Description: (§4) Efficacy was assessed according to the International Working Group for AML trials criteria. Adverse events (AEs) were graded according to the National Cancer Institute Common Terminology Criteria for Adverse Events (CTCAE), version 3.0 [19].
# patients with AML [5] = assay: Efficacy: response by International Working Group AML criteria; assay type: in vivo, human
# Description: The primary objective was to assess the PK, metabolism and excretion profiles of barasertib and barasertib-hQPA following a single 7-day intravenous infusion, including a short infusion of [^14C]-barasertib, to patients with AML. Secondary objectives were to assess the safety and tolerability of barasertib and to evaluate preliminary efficacy by measurement of individual patient response (based on the International Working Group AML clinical response criteria).
# as §4
# patients with AML [6] = test system: patients with AML; set-up: method as in PMID 21976672, PMID 21565405; conditions: Phase I studies, Japanese and Western patients with AML; cited from earlier work
# AML patients = conditions: Phase I/II dose-escalation study; cited from earlier work
# [7] = excreta (urine and feces), % of administered dose
# [8] = plasma collected 5 min prior to [14C]-EOI, % of chromatogram radioactivity
# [9] = human, plasma, iv, 1200 mg, plasma, n=4, barasertib 1,200 mg 7-day continuous i.v. infusion, geometric mean (coefficient of variation), read-out: AUC(0–t)
# [10] = plasma, n=4, barasertib 1,200 mg 7-day continuous i.v. infusion, geometric mean (coefficient of variation)
# [11] = urine, n=5, arithmetic mean (standard deviation)
# [12] = Grade 3, barasertib 1,200 mg, n = 5
# [13] = all grades, any cause, barasertib 1,200 mg, n = 5
# [14] = all grades, barasertib 1,200 mg, n = 5
compound,measurement,setting,value
CCN(CCO)CCCOc1ccc2c(Nc3cc(CC(=O)O)[nH]n3)ncnc2c1 [Barasertib-hQPA desfluoroaniline],"Retrieved radioactivity (%), range",[1]; [7],1.60–5.48%
same,"Retrieved radioactivity (%), range",[1]; [8],2.05^e %
"CCN(CCO)CCCOc1ccc2c(Nc3cc(CC(=O)Nc4cccc(F)c4)[nH]n3)ncnc2c1 [Barasertib-hQPA, barasertib-hydroxyquinazoline-pyrazol-aniline]","Retrieved radioactivity (%), range",[1]; [7],13.15–33.70%
same,"Retrieved radioactivity (%), range","[1]; excreta (urine and feces), % of administered dose, listed as barasertib-hQPA",13.2–33.7%
same,"Retrieved radioactivity (%), range",[1]; [8],48.27–56.61%
same,Geometric mean plasma concentration of barasertib-hQPA relative to barasertib,[2]; during the infusion period,approximately threefold
same,Time by which maximal plasma concentration was achieved,[2],≤ 24 h
same,Difference between volumes of distribution (apparent) at steady state versus terminal phase,"[2]; human, in vivo",fourfold
same,clearance,"[2]; human, intravenous, 1200 mg, plasma, n=4, arithmetic mean (standard deviation), read-out: CL, total clearance (converted)",523 mL/min
same,half-life,"[2]; human, intravenous, 1200 mg, plasma, n=4, arithmetic mean (standard deviation), read-out: t½, terminal half-life (converted)",66.3 h
same,k el,"[2]; human, intravenous, 1200 mg, plasma, n=4, arithmetic mean (standard deviation), read-out: λZ, slowest disposition rate constant (converted)",5.56e-06 s⁻¹
same,AUC,"[2]; human, iv, 1200 mg, plasma, n=4, barasertib 1,200 mg 7-day continuous i.v. infusion, geometric mean (coefficient of variation)",40400 ng·h/mL
same,Vd,"[2]; human, plasma, intravenous, 1200 mg, plasma, n=4, arithmetic mean (standard deviation), read-out: VSS, volume of distribution (apparent) at steady state",669 L
same,Vd,"[2]; human, plasma, intravenous, 1200 mg, plasma, n=4, arithmetic mean (standard deviation), read-out: VZ, volume of distribution (apparent) during terminal (λZ) phase",2800 L
same,concentration at 408 h,"[2]; human, plasma, intravenous, 1200 mg, 408 h (Day 18), read-out: Plasma concentration at final sampling point",~4 ng/mL
same,AUC(0-t),"[2]; human, plasma, iv, 1200 mg, plasma, n=4, barasertib 1,200 mg 7-day continuous i.v. infusion, geometric mean (coefficient of variation), read-out: AUC(0–192 h)",38200 ng·h/mL
same,AUC(0-t),[2]; [9],40100 ng·h/mL
same,"CSS, steady-state drug concentration",[2]; [10],226.8 (0.4) ng/mL
same,Plasma concentration as fraction of the plasma steady-state concentration,"[2]; within 2 h post-EOI, rapid initial phase",one-third
same,Geometric mean urine concentration,[3]; during the infusion period,4 to 5 µg/mL
same,CL renal,"[3]; human, urine and plasma, intravenous, 1200 mg, urine, n=5, arithmetic mean (standard deviation), read-out: CLR, renal clearance of drug from plasma (converted)",47.5 mL/min
same,"Ae, cumulative amount of unchanged drug excreted",[3]; [11],96.9 (47.2) mg
same,"fe, fraction of drug excreted into urine",[3]; [11],8.1 (3.9) %
CCN(CCCOc1ccc2c(Nc3cc(CC(=O)Nc4cccc(F)c4)n[nH]3)ncnc2c1)CCOP(=O)(O)O [Barasertib],"Retrieved radioactivity (%), range",[1]; [8],17.26–26.53%
same,"Febrile neutropenia, number of patients",patients with AML [4]; [12],2
same,"Hypocalcemia, number of patients",patients with AML [4]; [12],1
same,"Hypomagnesemia, number of patients",patients with AML [4]; [12],1
same,"Stomatitis, number of patients",patients with AML [4]; [12],2
same,"Febrile neutropenia, number of patients","patients with AML [4]; Grade 4, barasertib 1,200 mg, n = 5",1
same,"Nausea, number of patients",patients with AML [4]; [13],4
same,"Stomatitis, number of patients",patients with AML [4]; [13],4
same,"Alopecia, number of patients",patients with AML [4]; [14],3
same,"Constipation, number of patients",patients with AML [4]; [14],2
same,"Decreased appetite, number of patients",patients with AML [4]; [14],2
same,"Diarrhea, number of patients",patients with AML [4]; [14],2
same,"Fatigue, number of patients",patients with AML [4]; [14],2
same,"Febrile neutropenia, number of patients",patients with AML [4]; [14],3
same,"Headache, number of patients",patients with AML [4]; [14],2
same,"Hypocalcemia, number of patients",patients with AML [4]; [14],3
same,"Hypomagnesemia, number of patients",patients with AML [4]; [14],2
same,"Oral candidiasis, number of patients",patients with AML [4]; [14],2
same,"Peripheral edema, number of patients",patients with AML [4]; [14],2
same,"Vomiting, number of patients",patients with AML [4]; [14],3
same,Patients who had died due to an AE,"patients with AML [4]; at data cutoff, grade 5 multi-organ failure, considered unrelated to study treatment",one
same,Changes in vital signs or ECG measurements,"patients with AML [4]; barasertib 1,200 mg, n = 5",no clinically relevant changes
same,Patients who experienced grade ≥3 AEs,"patients with AML [4]; barasertib 1,200 mg, n = 5",three
same,Patients with no response,patients with AML [5]; four patients evaluable for response,three
same,Patients achieving complete response / complete remission,"patients with AML [5]; four patients evaluable for response, barasertib 1,200 mg 7-day infusion every 28 days",One
same,Duration of complete response,patients with AML [5]; one patient,~ 6 months
same,Response rates,patients with AML [6],19–25%
same,Maximum tolerated dose (MTD),AML patients,"1,200 mg"
same,Time after end of infusion at which plasma concentration reached the LLOQ,[2]; LLOQ 0.25 ng/mL plasma,≤ 6 h
same,Time by which maximal plasma concentration was achieved,[2],≤ 24 h
same,AUC(0-t),[2]; [9],13800 ng·h/mL
same,"CSS, steady-state drug concentration",[2]; [10],85.6 (0.5) ng/mL
same,Urine concentration,"[3]; all time points, LLOQ 1.00 μg/mL urine",below LLOQ
Barasertib-hQPA N-oxide,"Retrieved radioactivity (%), range",[1]; [7],0.21–2.96%
